Data from patent publication US20250241916A1, “TYROSINE KINASE INHIBITORS” (Nuvectis Pharma, Inc., priority 2022, published 2025).
Values belong to the compound of their own block, whether it stands above or below them.

How the values were obtained:
[1] = biological target: T1, full-length human BTK (GST-BTK) (Homo sapiens, UniProt Q06187); test: Off-chip Mobility Shift Assay (MSA), tyrosine kinase inhibition, BTK; format: biochemical; details: for inhibition at 0.5 µM: 0.5 μM compound
T1 construct: made in house
Procedure: (§1) Compound A was dissolved in dimethylsulfoxide (DMSO), and further diluted with assay buffer to a final concentration of 0.5 μmol/L. Reference compounds for assay control were prepared similarly. For BTK inhibition studies, full-length human BTK [2-659 (end) amino acids of accession number NP_000052] was expressed as N-terminal GST-fusion protein (103 kDa) using baculovirus expressionsystem. GST-BTK was purified by using glutathione sepharose chromatography. For BTK[C481S] inhibition studies, full-length human BTK [2-659 (end) amino acids and C481S of accession number NP_000052] was expressed as N-terminal GST-fusion protein (103 kDa) using baculovirusexpression system. GST-BTK[C481S] was purified by using glutathione sepharosechromatography.
(§2) A 4× Substrate/ATP/Metal solution was prepared with buffer (20 mmol/L HEPES, 0.01% Triton X-100, 5 mmol/L DTT, pH 7.5), and a 2× kinase solution was also prepared with buffer (20 mmol/L HEPES, 0.01% Triton X-100, 1 mmol/L DTT, pH 7.5). 5 μL of 4× compound solution, 5 μL of 4× Substrate/ATP/Metal solution, and 10 μL of 2× kinase solution were mixed and incubated in a well of polypropylene 384 well microplate for 1 hour at room temperature. 70 μL of Termination Buffer (QuickScout Screening Assist MSA) was added to the well. The reaction mixture was applied to LabChip™ system, and the product and substrate peptide peaks were separated and quantitated. The kinase reaction was evaluated by the product ratio calculated from peak heights of product (P) and substrate (S) peptides (P/(P+S)).
(§3) The readout value of reaction control (complete reaction mixture) was set as a 0% inhibition, and the readout value of background (Enzyme(−)) was set as a 100% inhibition, then the percent inhibition of each test solution was calculated (Table 2).

[2] = biological target: T2, full-length human BTK[C481S] (GST-BTK[C481S]) (Homo sapiens, UniProt Q06187, C481S); test: Off-chip Mobility Shift Assay (MSA), tyrosine kinase inhibition, BTK[C481S]; format: biochemical; details: for inhibition at 0.5 µM: 0.5 μM compound
T2 construct: made in house
Procedure: as §1, §2, §3

[3] = test system: pan cancer squamous lines; test: Sensitivity of cancer cell line panel (102 cell lines) to compound; format: cell-based; details: FIG. 1, p<0.05
Excerpt: Examples of squamous cell carcinomas contemplated herein may include, but are not limited to, cutaneous squamous cell carcinoma, esophageal squamous cell carcinoma, head and neck squamous cell carcinoma, squamous cell carcinoma of the vulva, and lung squamous cell carcinoma.
A shift to the left represents increased sensitivity. Size of circles represents number of cell lines with alteration (minimum of cell lines per alteration).

[4] = test system: KYSE70 (esophageal squamous cell carcinoma) xenograft; test: KYSE70 mouse xenograft model, antitumor efficacy; details: for Avg. Baseline Tumor Volume: 40 mg/kg
Procedure: (§4) Prior to the in-life phase of the study, the animals were weighed and examined for signs of physical disorder. […] Tumor reads were collected every 2 days up to 28 days, starting treatment at 100 mm^3 tumor volume and ending at 2000 mm^3 tumor volume. A t-test was applied to determine the significance of differences in tumor volumes.
(§5) Dose materials were prepared weekly in aliquots and stored frozen at −20° C. until dosing. For enrollment of mice into study, subcutaneous tumor volumes were monitored daily until reaching a minimum palpable tumor volume (˜100 mm3 by caliper) in the required number of mice. […] Following randomization and study cohort assignment, each dose cohort was treated according to dosage and schedule. Mice were euthanized when study end points were reached.
(§6) Tumor volume measurements were performed every 2 days (up to 3 times per week) using a calibrated caliper. Tumor volumes were determined using the formula length (mm)×width (mm)×height (mm)×0.50.
(§7) A tumor volume humane endpoint was reached when a 20% loss in body weight (excluding tumor weight) was observed over a week, or a 15% loss in body weight over 2 to 3 day period, or if a body condition score less than 2 (Body Condition Scoring for scoring guide), or the tumor weight exceeded 10% of the non-tumor bearing body weight (tumor weight was calculated based on tumor height×length×width×0.50×density of 1 g/cm^3) or when the tumor exceeded 2000 mm^3 in size. Body weight measurements were performed every 2 days (up to 3 times per week) during the 28-day treatment period to coincide with tumor volume measurement schedule. A humane endpoint was reached when body weight loss exceeded 20%.
(§8) The abbreviation RTV28 (relative tumor volume, day 28)=[avg. tumor volume D28]/[avg. tumor volume at baseline]. The abbreviation TGI % (percent tumor growth inhibition)=(1−[RTV28 of the treated group]/[RTV28 vehicle])×100.

[5] = test system: Cal27 (tongue squamous cell carcinoma) xenograft; test: Cal27 mouse xenograft model, antitumor efficacy
Procedure: as §4, §5, §6, §7, §8

[6] = 40 mg/kg oral once daily, 28 days, p≤0.001 vs vehicle on Day 27
[7] = (1-RTV28 treated/RTV28 vehicle)x100, 40 mg/kg oral once daily
[8] = Day 27, 40 mg/kg oral once daily
[9] = Day 28, 40 mg/kg oral once daily
[10] = avg. tumor volume D28 / baseline, 40 mg/kg oral once daily

T1 sequence (Q06187 2-659): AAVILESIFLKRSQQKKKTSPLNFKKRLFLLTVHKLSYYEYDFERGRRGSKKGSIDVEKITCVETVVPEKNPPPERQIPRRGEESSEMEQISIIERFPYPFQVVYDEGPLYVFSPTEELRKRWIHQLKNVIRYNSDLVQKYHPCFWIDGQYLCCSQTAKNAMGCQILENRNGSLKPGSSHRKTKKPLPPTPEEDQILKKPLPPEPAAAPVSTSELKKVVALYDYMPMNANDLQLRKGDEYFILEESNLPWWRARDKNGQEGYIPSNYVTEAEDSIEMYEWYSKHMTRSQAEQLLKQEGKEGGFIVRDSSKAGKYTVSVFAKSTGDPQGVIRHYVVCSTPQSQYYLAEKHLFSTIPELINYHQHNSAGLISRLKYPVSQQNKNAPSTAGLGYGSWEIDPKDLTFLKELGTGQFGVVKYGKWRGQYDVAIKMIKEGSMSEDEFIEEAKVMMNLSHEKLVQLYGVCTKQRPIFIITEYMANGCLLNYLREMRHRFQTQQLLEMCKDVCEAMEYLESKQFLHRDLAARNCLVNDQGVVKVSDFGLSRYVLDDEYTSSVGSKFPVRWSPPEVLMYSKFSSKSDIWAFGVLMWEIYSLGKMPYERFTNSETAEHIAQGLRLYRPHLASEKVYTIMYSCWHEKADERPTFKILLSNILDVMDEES
T2 sequence (Q06187 2-659 C481S): as the sequence (Q06187 2-659) above, with C480S counted along it

IC50 [1]: 12.5 nM
inhibition at 0.5 µM [1]: 95.6%
IC50 [2]: 16.3 nM
inhibition at 0.5 µM [2]: 97.5%
Compound: CNC1CCN(CCn2nc(-c3ccc(NC(=O)OC(C)(C)C)c(OC)c3)c3c(N)ncnc32)CC1 [Compound B, tert-butyl (4-(4-amino-1-(2-(4-(methylamino)piperidin-1-yl)ethyl)-1H-pyrazolo[3,4-d]pyrimidin-3-yl)-2-methoxyphenyl) carbamate]

Compound: COc1cc(-c2nn(CCN3CCC(N(C)C)CC3)c3ncnc(N)c23)ccc1NC(=O)OC(C)(C)C [Compound A, tert-Butyl (4-(4-amino-1-(2-(4-(dimethylamino)piperidin-1-yl)ethyl)-1H-pyrazolo[3,4-d]pyrimidin-3-yl)-2-methoxyphenyl)carbamate]
sensitivity of pan cancer squamous carcinomas (10logIC50) [3]: high sensitivity
tumor growth inhibition [4, 6]: substantial tumor growth inhibition
Tumor Growth Inhibition (TGI) [4, 7]: 95%
average tumor volume on Day 27 [4, 8]: 31.5 mm^3
mean percent increase from baseline in body weight [4, 8]: 2.0%
decrease in tumor volume from baseline ([4]; Day 27 vs baseline, 40 mg/kg oral once daily): 71%
Avg. Day 28. Tumor Volume [4, 9]: 31.5 mm^3
Relative Tumor Volume (RTV28) [4, 10]: 0.29
Avg. Baseline Tumor Volume ([4]; 40 mg/kg oral once daily): 109.8 mm^3
Avg. Baseline Tumor Volume ([4]; 40 mg/kg oral once daily, listed as Cmpd A): 106.0 mm^3
IC50 [1]: 12.5 nM
inhibition at 0.5 µM [1]: 96.9%
IC50 [2]: 16.3 nM
inhibition at 0.5 µM [2]: 95.1%
tumor growth inhibition [5, 6]: substantial TGI
Tumor Growth Inhibition (TGI) [5, 7]: 86%
average tumor volume on Day 27 [5, 8]: 91.4 mm3
mean percent increase from baseline in body weight [5, 8]: 2.1%
Avg. Day 28. Tumor Volume [5, 9]: 91.4 mm^3
Relative Tumor Volume (RTV28) [5, 10]: 0.78
Avg. Baseline Tumor Volume ([5]; baseline, 40 mg/kg oral once daily): 116.2 mm^3
